Measurements as given in US20260308186A1, “STAT DEGRADERS AND USES THEREOF” (Recludix Pharma, Inc., priority 2023, published 2026).
Read-outs that look alike come from different tables or passages of the source.

Tests used:
STAT3 = target: T1, STAT3 (Homo sapiens, UniProt P40763); assay: STAT3 Fluorescence Polarization (FP) Assay; assay type: binding
T1 construct: Recombinant STAT3 protein (STAT3(G127-1722))

STAT6 = target: T2, STAT6 (Homo sapiens, UniProt P42226); assay: STAT6 Fluorescence Polarization (FP) Assay; assay type: binding
T2 construct: Recombinant STAT6 protein (STAT6(W123-T658))
T2 sequence (P42226 123-658): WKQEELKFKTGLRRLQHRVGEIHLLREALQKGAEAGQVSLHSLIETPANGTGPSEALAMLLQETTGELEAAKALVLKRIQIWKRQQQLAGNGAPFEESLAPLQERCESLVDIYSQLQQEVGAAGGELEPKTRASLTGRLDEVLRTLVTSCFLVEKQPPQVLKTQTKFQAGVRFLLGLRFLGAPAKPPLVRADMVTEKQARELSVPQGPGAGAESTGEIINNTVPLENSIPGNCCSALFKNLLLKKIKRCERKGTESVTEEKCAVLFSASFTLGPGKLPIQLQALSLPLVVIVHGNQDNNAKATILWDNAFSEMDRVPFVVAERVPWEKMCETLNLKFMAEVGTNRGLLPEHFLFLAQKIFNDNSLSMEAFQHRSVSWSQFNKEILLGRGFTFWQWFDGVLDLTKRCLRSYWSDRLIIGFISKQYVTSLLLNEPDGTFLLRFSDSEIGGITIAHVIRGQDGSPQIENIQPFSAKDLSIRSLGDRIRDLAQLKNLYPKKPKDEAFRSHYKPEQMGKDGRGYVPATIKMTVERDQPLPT
Summary of the method: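 STAT6(W123-T658) at 250 nM plus 2 nM 5-FAM phosphotyrosine peptide probe in HEPES pH 7.4 buffer with 2 mM DTT, 1% DMSO final. Polarization read after 45 min at room temperature. IC50 from nonlinear regression of mP against log concentration.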

pSTAT3 = target: T3, pSTAT3 (Homo sapiens, UniProt P40763); assay: MSD-pSTAT-PBMC Assay, pSTAT3 (IL-6 stimulated PBMC); assay type: cell-based
T3 construct: pY705-STAT3 MSD read-out
T3 sequence (P40763 whole entry): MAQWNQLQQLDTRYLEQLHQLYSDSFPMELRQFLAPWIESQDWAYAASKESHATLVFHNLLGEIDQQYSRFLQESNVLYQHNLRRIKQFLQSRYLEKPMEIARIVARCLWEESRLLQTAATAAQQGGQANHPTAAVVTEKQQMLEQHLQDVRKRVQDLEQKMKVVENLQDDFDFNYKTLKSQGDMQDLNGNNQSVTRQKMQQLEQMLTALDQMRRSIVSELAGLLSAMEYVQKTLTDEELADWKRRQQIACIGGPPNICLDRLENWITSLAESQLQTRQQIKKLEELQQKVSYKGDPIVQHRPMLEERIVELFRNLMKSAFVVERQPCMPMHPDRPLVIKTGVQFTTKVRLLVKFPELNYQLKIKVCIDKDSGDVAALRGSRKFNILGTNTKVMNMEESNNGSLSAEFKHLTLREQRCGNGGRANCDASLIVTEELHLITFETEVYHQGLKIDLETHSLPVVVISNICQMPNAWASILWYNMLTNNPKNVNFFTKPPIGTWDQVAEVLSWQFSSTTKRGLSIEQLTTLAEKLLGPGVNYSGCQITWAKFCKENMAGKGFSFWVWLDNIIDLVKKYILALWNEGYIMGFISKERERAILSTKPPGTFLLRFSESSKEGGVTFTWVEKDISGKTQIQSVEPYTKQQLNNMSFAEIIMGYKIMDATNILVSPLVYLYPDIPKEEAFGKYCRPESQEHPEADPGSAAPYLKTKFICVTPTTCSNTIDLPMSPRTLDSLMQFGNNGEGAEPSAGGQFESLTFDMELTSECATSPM
Excerpt: Cryopreserved Peripheral Blood Mononuclear Cells (PBMC) are from AllCells. Recombinant Human IL-4 and IL-6 are from Peprotech. Mouse monoclonal anti-STAT3 antibody, rabbit monoclonal anti-pY705-STAT3 antibody, rabbit monoclonal Anti-pY641-STAT6 antibody, and lysis buffer are from Cell Signaling Technology (CST). Mouse monoclonal anti-STAT6 antibody is from BioLegend. Assay plates, blocker, and anti-rabbit secondary antibody are from Meso Scale Discovery (MSD).
Cryopreserved PBMCs were thawed out and allowed to recover overnight in IMDM+10% heat-inactivated FBS prior to plating 50,000 (STAT3) or 25,000 (STAT6) cells per well in 96-well U-bottom tissue culture plates. Cells were treated with compound for 3 hrs. then stimulated with 10 ng/mL IL-6 (STAT3) or 1 ng/mL IL-4 (STAT6) for 10 min. Cells were then spun down and washed with ice-cold PBS prior to lysing the cell pellet with 1× lysis buffer (CST) with 1×HALT protease and phosphatase inhibitor cocktail (Thermo). Lysates were transferred to and incubated overnight at 4° C. with shaking in QuickPlex 96-well high bind assay plates (MSD) pre-coated overnight with 30 μL per well of 0.6 μg/mL mouse monoclonal anti-STAT3 antibody (STAT3) or 2 μg/mL mouse monoclonal anti-STAT6 antibody (STAT6) in 1×PBS, and pre-blocked for 1 hour with 3% Blocker-A (MSD). Captured protein in the assay plates were then washed and probed with 25 μL per well of 0.25 μg/ml rabbit monoclonal anti-pY705-STAT3 antibody (STAT3) or 0.18 μg/ml rabbit monoclonal Anti-pY641-STAT6 antibody (STAT6) in 1% Blocker-A for 1 hour at room temperature with shaking, then washed and probed with 25 ul per well of 1 ug/ml Sulfo-TAG Labeled Goat Anti-Rabbit Antibody (MSD) in 1% Blocker-A for 1 hour at room temperature with shaking. Assay plates were then washed and 150 μL of 1× Read Buffer-T (MSD) was added to each well prior to reading on an SQ120 MSD Plate Reader. Assay signal from each sample was subtracted by the signal from unstimulated control wells and normalized to DMSO control wells. IC50 values were calculated using Graph Pad Prism Dose-Response Nonlinear Regression with variable slope. For both pSTAT3 and pSTAT6 A=≤100 nM; B=>100-1000 nM; C=>1000-3000 nM; and D=>3 μM.

pSTAT6 = target: T4, pSTAT6 (Homo sapiens, UniProt P42226); assay: MSD-pSTAT-PBMC Assay, pSTAT6 (IL-4 stimulated PBMC); assay type: cell-based
T4 construct: pY641-STAT6 MSD read-out
T4 sequence (P42226 1-847): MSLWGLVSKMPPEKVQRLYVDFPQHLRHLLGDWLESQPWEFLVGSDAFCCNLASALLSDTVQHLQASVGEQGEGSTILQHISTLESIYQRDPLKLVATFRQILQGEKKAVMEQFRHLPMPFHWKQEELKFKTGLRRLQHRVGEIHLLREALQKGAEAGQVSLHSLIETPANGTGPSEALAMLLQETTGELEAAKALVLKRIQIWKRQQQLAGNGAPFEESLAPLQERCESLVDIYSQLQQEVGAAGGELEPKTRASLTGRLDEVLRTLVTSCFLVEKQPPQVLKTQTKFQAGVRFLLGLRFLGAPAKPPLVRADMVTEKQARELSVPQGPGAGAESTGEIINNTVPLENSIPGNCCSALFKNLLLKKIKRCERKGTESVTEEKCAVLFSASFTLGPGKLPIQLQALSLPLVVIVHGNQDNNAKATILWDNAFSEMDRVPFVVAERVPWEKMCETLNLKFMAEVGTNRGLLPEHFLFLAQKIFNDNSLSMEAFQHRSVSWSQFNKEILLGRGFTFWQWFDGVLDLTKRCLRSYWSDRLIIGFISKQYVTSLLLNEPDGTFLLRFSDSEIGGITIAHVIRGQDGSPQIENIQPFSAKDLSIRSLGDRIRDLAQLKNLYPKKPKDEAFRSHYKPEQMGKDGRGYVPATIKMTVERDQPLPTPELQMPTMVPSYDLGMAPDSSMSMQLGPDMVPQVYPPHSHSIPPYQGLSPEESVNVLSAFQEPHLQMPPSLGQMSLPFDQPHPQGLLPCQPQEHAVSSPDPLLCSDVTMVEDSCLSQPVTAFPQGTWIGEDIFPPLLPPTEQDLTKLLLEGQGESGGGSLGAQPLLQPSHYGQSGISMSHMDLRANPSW
Summary of the method: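 Human PBMC were recovered overnight, treated 3 h with compound, then stimulated for 10 min with 10 ng/mL IL-6 (pSTAT3) or 1 ng/mL IL-4 (pSTAT6). Lysates were read by MSD sandwich immunoassay, with total STAT capture and pY705-STAT3 or pY641-STAT6 detection. Signal minus unstimulated wells was normalized to DMSO, and IC50 came from a variable-slope fit.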

[1] = read-out: pSTAT3 IC50, compound 3 hrs, then 10 ng/mL IL-6 for 10 min, pY705-STAT3
[2] = read-out: pSTAT6 IC50, compound 3 hrs, then 1 ng/mL IL-4 for 10 min, pY641-STAT6
[3] = recombinant STAT3 25 nM, probe 5-FAM-GpYLPQTV-NH2 2 nM, 45 min, room temperature, read-out: STAT3 FP IC50
[4] = recombinant STAT6(W123-T658) 250 nM, probe 5-FAM-Ap[…]-NH2 2 nM, 45 min, room temperature, read-out: STAT6 FP IC50
[5] = compound 3 hrs, then 10 ng/mL IL-6 for 10 min, pY705-STAT3, read-out: pSTAT3 IC50
[6] = compound 3 hrs, then 1 ng/mL IL-4 for 10 min, pY641-STAT6, read-out: pSTAT6 IC50

T1 sequence (P40763 127-722 limits assumed): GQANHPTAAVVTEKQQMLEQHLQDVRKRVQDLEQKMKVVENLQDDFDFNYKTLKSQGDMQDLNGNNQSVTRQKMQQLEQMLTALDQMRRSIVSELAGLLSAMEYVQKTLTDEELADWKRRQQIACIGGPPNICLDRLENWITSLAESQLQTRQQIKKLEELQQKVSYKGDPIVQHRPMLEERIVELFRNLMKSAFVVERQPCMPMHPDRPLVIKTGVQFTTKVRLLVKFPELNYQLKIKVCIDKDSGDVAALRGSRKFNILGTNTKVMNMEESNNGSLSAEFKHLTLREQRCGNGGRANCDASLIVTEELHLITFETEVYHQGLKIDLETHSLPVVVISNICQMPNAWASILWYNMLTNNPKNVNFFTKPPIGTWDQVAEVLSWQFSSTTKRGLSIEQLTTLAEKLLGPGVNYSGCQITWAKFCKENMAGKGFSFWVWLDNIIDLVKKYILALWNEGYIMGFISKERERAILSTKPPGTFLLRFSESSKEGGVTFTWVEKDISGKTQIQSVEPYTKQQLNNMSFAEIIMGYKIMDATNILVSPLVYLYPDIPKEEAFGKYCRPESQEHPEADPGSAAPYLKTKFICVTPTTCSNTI

Compound | IC50 (STAT3) [µM] | IC50 (STAT6) [µM] | IC50 (pSTAT3; [1]) [µM] | IC50 (pSTAT6; [2]) [µM] | IC50 (STAT3; [3]) [µM] | IC50 (STAT6; [4]) [µM] | IC50 (pSTAT3; [5]) [µM] | IC50 (pSTAT6; [6]) [µM]
CN(C(=O)[C@@H]1CC[C@@H]2CCN(C(=O)CCCCCC#Cc3cccc4c3CN(C3CCC(=O)NC3=O)C4=O)C[C@H](NC(=O)c3cc4cc(C(F)(F)P(=O)(O)O)ccc4[nH]3)C(=O)N21)c1ccccc1 (stereo partly drawn) [Compound 1, [(2-{[(5S,8S,10aR)-3-{8-[2-(2,6-dioxopiperidin-3-yl)-1-oxo-2,3-dihydro-1H-isoindol-4-yl]oct-7-ynoyl}-8-[methyl(phenyl)carbamoyl]-6-oxo-decahydropyrrolo[1,2-a][1,5]diazocin-5-yl]carbamoyl}-1H-indol-5-yl)difluoromethyl]phosphonic acid] | 1 to 10 | 0.3 to 3 | > 3 | > 3 | – | – | – | –
CC(=O)N1CC[C@H]2CC[C@@H](C(=O)Nc3ccc(-c4ccc(NC(=O)CCCCCC#Cc5cccc6c5CN(C5CCC(=O)NC5=O)C6=O)cc4)cc3)N2C(=O)[C@@H](NC(=O)c2cc3cc(C(F)(F)P(=O)(O)O)ccc3[nH]2)C1 (stereo partly drawn) [Compound 3, ((2-(((5S,8S,10aR)-3-acetyl-8-((4′-(8-(2-(2,6-dioxopiperidin-3-yl)-1-oxoisoindolin-4-yl)oct-7-ynamido)-[1,1′-biphenyl]-4-yl)carbamoyl)-6-oxodecahydropyrrolo[1,2-a][1,5]diazocin-5-yl)carbamoyl)-1H-indol-5-yl)difluoromethyl)phosphonic acid] | 0.1 to 1 | 0.3 to 3 | > 3 | > 3 | – | – | – | –
O=C1CCC(N2Cc3c(C#CCCCCCC(=O)N4CC[C@H]5CC[C@@H](C(=O)N6CC(c7cccnc7)C6)N5C(=O)[C@@H](NC(=O)c5cc6cc(C(F)(F)P(=O)(O)O)ccc6s5)C4)cccc3C2=O)C(=O)N1 (stereo partly drawn) [Compound 5, ((2-(((5S,8S,10aR)-3-(8-(2-(2,6-dioxopiperidin-3-yl)-1-oxoisoindolin-4-yl)oct-7-ynoyl)-6-oxo-8-(3-(pyridin-3-yl)azetidine-1-carbonyl)decahydropyrrolo[1,2-a][1,5]diazocin-5-yl)carbamoyl)benzo[b]thiophen-5-yl)difluoromethyl)phosphonic acid] | – | – | – | – | < 0.1 | 3 to 30 | > 3 | > 3
N#CC1CN(C(=O)C2CCC3CCN(C(=O)CCCCCC#Cc4cccc5c4CN(C4CCC(=O)NC4=O)C5=O)CC(NC(=O)c4cc5cc(C(F)(F)P(=O)(O)O)ccc5s4)C(=O)N32)CC1c1ccccc1 [Compound 6, ((2-(((5S,8S,10aR)-8-((rel-3S,4R)-3-cyano-4-phenylpyrrolidine-1-carbonyl)-3-(8-(2-(2,6-dioxopiperidin-3-yl)-1-oxoisoindolin-4-yl)oct-7-ynoyl)-6-oxodecahydropyrrolo[1,2-a][1,5]diazocin-5-yl)carbamoyl)benzo[b]thiophen-5-yl)difluoromethyl)phosphonic acid] | – | – | – | – | 1 to 10 | < 0.3 | > 3 | 1 to 3
Cc1ccc2[nH]nc(C(=O)N3CC[C@H]4CC[C@@H](C(=O)NCCCCCCCCC(=O)N[C@H](C(=O)N5C[C@H](O)C[C@H]5C(=O)N[C@@H](C)c5ccc(-c6scnc6C)cc5)C(C)(C)C)N4C(=O)[C@@H](NC(=O)c4ccc5ccc(C(F)(F)P(=O)(O)O)cc5c4)C3)c2c1 [Compound 7] | 1 to 10 | < 0.3 | > 3 | > 3 | – | – | – | –
Cc1ccc2[nH]nc(C(=O)N3CC[C@H]4CC[C@@H](C(=O)NCCCCCCC#Cc5cccc6c5CN(C5CCC(=O)NC5=O)C6=O)N4C(=O)[C@@H](NC(=O)c4ccc5ccc(C(F)(F)P(=O)(O)O)cc5c4)C3)c2c1 (stereo partly drawn) [Compound 9, ((7-(((5S,8S,10aR)-8-((8-(2-(2,6-dioxopiperidin-3-yl)-1-oxoisoindolin-4-yl)oct-7-yn-1-yl)carbamoyl)-3-(5-methyl-1H-indazole-3-carbonyl)-6-oxodecahydropyrrolo[1,2-a][1,5]diazocin-5-yl)carbamoyl)naphthalen-2-yl)difluoromethyl)phosphonic acid] | 1 to 10 | < 0.3 | > 3 | 1 to 3 | – | – | – | –
